Test results: ChEMBL document CHEMBL1201862, “PubChem BioAssay data set” (2004)
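Five concentrations, 48 hours, 96-well plates. GI50 is the concentration that inhibits growth by half.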 Active and inactive are the calls of the source. Cut-off read from the data, not from the text of the source: active = GI50 up to about 1.1 µM and inactive = higher.

How the values were obtained:
Assay in all cases: NCI tumour cell line growth inhibition, 48 h
[1] = test system: SK-OV-3
[2] = test system: DMS-273
[3] = test system: SF-539
[4] = test system: SW-620
[5] = test system: SNB-75
[6] = test system: SK-MEL-2
[7] = test system: IGROV-1
[8] = test system: SNB-19
[9] = test system: HT-29
[10] = test system: LXFL 529
[11] = test system: U-251
[12] = test system: SK-MEL-5
[13] = test system: HCT-15
[14] = test system: NCI-H522
[15] = test system: CCRF-CEM
[16] = test system: OVCAR-5
[17] = test system: K562
[18] = test system: SK-MEL-28
[19] = test system: SF-295
[20] = test system: HCT-116
[21] = test system: HL-60
[22] = test system: RPMI-8226
[23] = test system: NCI-H226
[24] = test system: DLD-1
[25] = test system: TK-10
[26] = test system: A549
[27] = test system: Malme-3M
[28] = test system: M19-MEL
[29] = test system: HCC 2998
[30] = test system: DMS-114
[31] = test system: NCI-H23
[32] = test system: UO-31
[33] = test system: 786-0
[34] = test system: HOP-62
[35] = test system: OVCAR-3
[36] = test system: SN12C
[37] = test system: UACC-62
[38] = test system: COLO 205
[39] = test system: SNB-78
[40] = test system: CAKI-1
[41] = test system: RXF 393
[42] = test system: SR
[43] = test system: LOX IMVI
[44] = test system: ACHN
[45] = test system: UACC-257
[46] = test system: M14
[47] = test system: SF-268
[48] = test system: EKVX
[49] = test system: KM-20L2
[50] = test system: MOLT-4
[51] = test system: OVCAR-8
[52] = test system: NCI-H460

Measured: GI50

CCCN(CCC)c1c([N+](=O)[O-])cc(C(=O)N(CC)CC)cc1[N+](=O)[O-]
21.4 µM: [13]
inactive: [1] 25.5 µM | [2] 17.6 µM | [3] 24.7 µM | [4] 28.6 µM | [5] 21.3 µM | [6] 16.7 µM | [7] 32.3 µM | [8] 20 µM | [9] 22.6 µM | [10] 19.1 µM | [11] 15.5 µM | [12] 13.3 µM | [14] 10.2 µM | [15] 20.8 µM | [16] 30.9 µM | [17] 12.6 µM | [18] 22.9 µM | [19] 23 µM | [20] 13.6 µM | [21] 14 µM | [22] 11.9 µM | [23] 23 µM | [24] 17.6 µM | [25] 29 µM | [26] 12.3 µM | [27] 16.3 µM | [28] 20.7 µM | [29] 37.1 µM | [30] 10.9 µM | [31] 7.55 µM | [32] 18 µM | [33] 27.5 µM | [34] 29.4 µM | [35] 14.5 µM | [36] 22.4 µM | [37] 17.7 µM | [38] 18.1 µM | [39] 31 µM | [40] 25.1 µM | [41] 17.4 µM | [42] 14.8 µM | [43] 16 µM | [44] 25.5 µM | [45] 16.3 µM | [46] 23.2 µM | [47] 17.6 µM | [48] 18.6 µM | [49] 18.4 µM | [50] 16.4 µM | [51] 18.3 µM | [52] 15.9 µM
